Key:
Sandhoff mice = conditions: Aspirin combined with substrate reduction therapy; cited from earlier work
[1] = test system: Sandhoff mouse model (Hexb (−/−)); assay: Survival study in Sandhoff mouse model; type: in vivo; conditions: Hexb (−/−) mice, treated vs vehicle/untreated
Text: (strain: B6; 129S4-Hexbtm1Rlp/J). The mouse line was maintained by crossing homozygous −/− males with heterozygous females (generating litters with 50%−/− and 50%+/−) under specific pathogen-free conditions. All mice were housed in individual, ventilated cages (IVCs) with 12-h light/dark cycles with food and water ad libitum. Young-adult mice of the same genetic C57BL/6 background were from Jackson Laboratories. Breeding of Hexb mutants will target needs of the “Long-term” cohorts first, followed by the “16-week” biomarker study.
Cohort 1: There were a total of 6 dose groups and 2 vehicle groups using both Hexb+/− and Hexb−/− animals. […] Dosing occurred daily from day 30 to day 170, unless the animal was prematurely euthanized per protocol.
A subsequent study to explore lower doses was also performed (in the same manner as in Example 2) in which doses of 0.02, 0.06, 0.2 and 0.5 mg/kg/day were used. […] It is unclear why the 0.06 mg/kg/day had less survival as formulations were checked and confirmed accurate dosing (internal data).

[2] = Dynamic vapour sorption (DVS); type: physicochemical; conditions: high relative humidity
Text: In addition, the behaviour of the sample of the Form 3 crystalline form of compound of formula (I) obtained by equilibration with ethyl acetate was investigated under variable water vapour pressures (DVS measurement). At the highest relative humidity of 95% the sample absorbed about 1.2% of water that was released when the relative humidity was returned to the 50% RH. The amount of absorbed water is small, and the water sorption is reversible. […] For Form 2, at high relative humidity the sample absorbed about 18% of water; however, most of the absorbed water was released when the relative humidity was returned to the 50% RH.
Dynamic vapour sorption (DVS) measurements were performed with an SPS11-100n “Sorptions Prufsystem” from ProUmid (formerly “Projekt Messtechnik”), August-Nagel-Str. 23, 89079 Ulm (Germany). About 5 mg to 20 mg of sample was put into an aluminum sample pan. Humidity change rates of 5% per hour were used.

**Q.** What does the source list for `CC(=O)Oc1ccccc1C(=O)O` [Aspirin]?
**A.** maximum improvement of survival (Sandhoff mice): 73%; synergy, improvement in survival (Sandhoff mice): 11%

**Q.** For `OC[C@H]1[C@@H](O)[C@H](O)[C@@H](O)CN1CCCCCOCc1ccc(-c2ccccc2)c(F)c1` [compound of formula (I)], which “increase in survival / life expectancy” value [1] is on record?
**A.** The value was “at least 22%”.

**Q.** For `OC[C@H]1[C@@H](O)[C@H](O)[C@@H](O)CN1CCCCCOCc1ccc(-c2ccccc2)c(F)c1` [Form 2], which “water absorbed (DVS)” value [2] is on record?
**A.** The value was “about 18%”.
